The source of these data is PubChem BioAssay (NCI).

Test systems include 786-0 renal; HCT-15 colon; IGROV1 ovarian; MCF7 breast; MDA-N; NCI-H226 lung; SK-MEL-2 melanoma; SNB-75 CNS; SR leukemia; T-47D breast; UACC-62 melanoma; UO-31 renal.
Assay in all cases: NCI anticancer screen, dose series, 48 h

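Cultured in 96-well plates, cells were exposed to test compound for 48 hours across five concentrations. TGI: total growth inhibition.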

In the case of `COC1OC2COC1(OCc1ccccc1)C1OC(C)(C)OC21` (configuration not stated), the TGI in the assay with 786-0 renal, in the assay with HCT-15 colon, with IGROV1 ovarian, in the assay with MCF7 breast, in the assay with MDA-N and in the assay with NCI-H226 lung was above 100 µM each time. Also, the TGI in the assay on SK-MEL-2 melanoma, with SNB-75 CNS, with SR leukemia, in the assay on T-47D breast, with UACC-62 melanoma and in the assay with UO-31 renal was above 100 µM each time.

In the case of `CC(NC1=NCCO1)c1ccccc1Cl` (configuration not stated), the TGI in the assay with 786-0 renal, in the assay with HCT-15 colon, in the assay on IGROV1 ovarian, in the assay with MCF7 breast, in the assay with MDA-N and in the assay with NCI-H226 lung was above 100 µM throughout. Also, the TGI with SK-MEL-2 melanoma, in the assay with SNB-75 CNS, in the assay on SR leukemia, in the assay on T-47D breast, in the assay on UACC-62 melanoma and in the assay on UO-31 renal was above 100 µM each time.

Take `O=c1onc2n1-c1ccc(Cl)cc1C(=S)N1CSCC21` (configuration not stated): the TGI with 786-0 renal was above 100 µM; with HCT-15 colon, 95.3 µM; in the assay with IGROV1 ovarian, above 100 µM; in the assay on MCF7 breast, 96.9 µM; in the assay with MDA-N, 23.7 µM; with NCI-H226 lung, 83.1 µM. Moreover, the TGI with SK-MEL-2 melanoma was 69.6 µM; in the assay on SNB-75 CNS, 91.9 µM; in the assay on SR leukemia, 48.1 µM; with T-47D breast, above 100 µM; in the assay on UACC-62 melanoma, above 100 µM; with UO-31 renal it was above 100 µM.

As to `C#C[C@]1(O)CC[C@H]2[C@@H]3CCC4=C/C(=N\OCCN5CCCCC5)CC[C@]4(C)[C@H]3CC[C@@]21C`, the TGI with 786-0 renal turned out to be 14.9 µM; with HCT-15 colon it was 23 µM; in the assay with IGROV1 ovarian, 19.1 µM; in the assay with MCF7 breast it was 15.6 µM; in the assay on MDA-N, 4.21 µM; with NCI-H226 lung it was 39.5 µM. The TGI in the assay with SK-MEL-2 melanoma came out at 8.76 µM; with SNB-75 CNS it was 17.1 µM; with SR leukemia, 5.17 µM; with T-47D breast, 19.3 µM; in the assay with UACC-62 melanoma, 10.7 µM; in the assay with UO-31 renal, 16 µM.

As for `COC(=O)C1=C(C)NC(=O)N2[C@@H](CCOCc3ccccc3)CC[C@@H]12`, the TGI in the assay with 786-0 renal, in the assay with HCT-15 colon, with IGROV1 ovarian, in the assay on MCF7 breast, in the assay with MDA-N and in the assay on NCI-H226 lung was above 50 µM throughout. The TGI in the assay on SK-MEL-2 melanoma is above 50 µM; in the assay with SNB-75 CNS, above 50 µM; in the assay with SR leukemia, above 50 µM; with T-47D breast, 49.1 µM; in the assay on UACC-62 melanoma, above 50 µM; in the assay with UO-31 renal, above 50 µM.

For the compound `COc1ccc(S(=O)(=O)Nc2ccc(-c3csc(N4C(=O)/C(=C/c5ccccc5[N+](=O)[O-])N=C4c4ccccc4)n3)cc2)cc1Cl`, the TGI is above 100 µM with 786-0 renal; 81.2 µM with HCT-15 colon; above 100 µM in the assay with IGROV1 ovarian; above 100 µM in the assay with MCF7 breast; above 100 µM with MDA-N; above 100 µM in the assay on NCI-H226 lung. Besides, the TGI was above 100 µM with SK-MEL-2 melanoma; above 100 µM with SNB-75 CNS; above 100 µM with SR leukemia; 75.2 µM in the assay on T-47D breast; above 100 µM with UACC-62 melanoma; 73.8 µM with UO-31 renal.

As to `CC(C)(C)C1=C(Br)C(F)(C(C)(C)C)OP1(=O)c1ccccc1` (configuration not stated), the TGI in the assay with 786-0 renal amounted to 29.6 µM; in the assay with HCT-15 colon, 36.9 µM; with IGROV1 ovarian it was 29.7 µM; in the assay with MCF7 breast it was 30 µM; in the assay with MDA-N, 34.7 µM; in the assay with NCI-H226 lung it was 31 µM. For the same compound, the TGI in the assay with SK-MEL-2 melanoma was determined as 36.5 µM; in the assay with SNB-75 CNS, 30.9 µM; in the assay on SR leukemia it was 31.4 µM; in the assay on T-47D breast, 42.1 µM; in the assay on UACC-62 melanoma it was 29.3 µM; with UO-31 renal it was 59.4 µM.

In the case of `C=C1C(C(=O)OC)[C@H]1C(=O)OC` (some centres not stated), the TGI with 786-0 renal, with HCT-15 colon, in the assay with IGROV1 ovarian, with MCF7 breast, in the assay on MDA-N and with NCI-H226 lung was above 100 µM throughout. Moreover, the TGI with SK-MEL-2 melanoma, in the assay with SNB-75 CNS, in the assay on SR leukemia, with T-47D breast, in the assay on UACC-62 melanoma and with UO-31 renal was above 100 µM each time.

Turning to `CCOC(=O)c1c(N)sc2c1CC(C)CC2` (configuration not stated), the TGI is 55.3 µM with 786-0 renal; above 100 µM in the assay on HCT-15 colon; above 100 µM with IGROV1 ovarian; above 100 µM with MCF7 breast; above 100 µM with MDA-N; 64 µM in the assay on NCI-H226 lung. Besides, the TGI in the assay with SK-MEL-2 melanoma was above 100 µM; in the assay with SNB-75 CNS, 98.1 µM; in the assay on SR leukemia it was 86.8 µM; in the assay with T-47D breast, above 100 µM; with UACC-62 melanoma it was above 100 µM; with UO-31 renal it was above 100 µM.

For `COc1ccc2c(c1)c1c3c(ccc4ncn2c43)N(CCO)CCN=1`, the TGI is 1.06 µM in the assay with 786-0 renal; 0.611 µM in the assay with HCT-15 colon; 5.53 µM with IGROV1 ovarian; 0.944 µM with MCF7 breast; 0.808 µM in the assay on MDA-N; 0.522 µM with NCI-H226 lung. Further, the TGI came to 0.359 µM in the assay on SK-MEL-2 melanoma; 1.19 µM in the assay on SNB-75 CNS; 0.207 µM in the assay on SR leukemia; 1.42 µM in the assay on T-47D breast; 0.602 µM in the assay on UACC-62 melanoma; 0.255 µM in the assay with UO-31 renal.

In the case of `COC(=O)C(CNC(=O)/C=C/c1ccc(OC)c(OC)c1)NC(=O)/C=C/c1ccc(OC)c(OC)c1` (configuration not stated), the TGI in the assay with 786-0 renal, with HCT-15 colon, in the assay on IGROV1 ovarian, in the assay on MCF7 breast, with MDA-N and in the assay with NCI-H226 lung was above 100 µM in each case. The TGI with SK-MEL-2 melanoma, in the assay with SNB-75 CNS, in the assay with SR leukemia, in the assay on T-47D breast, in the assay with UACC-62 melanoma and with UO-31 renal was above 100 µM in each case.

As for `Cn1c(-c2ccco2)ccc1-c1ccc(C=O)o1`, the TGI in the assay on 786-0 renal, with HCT-15 colon, with IGROV1 ovarian, in the assay with MCF7 breast, in the assay with MDA-N and in the assay with NCI-H226 lung was above 100 µM in each case. In addition, the TGI in the assay with SK-MEL-2 melanoma, with SNB-75 CNS, in the assay with SR leukemia, in the assay with T-47D breast, in the assay with UACC-62 melanoma and in the assay with UO-31 renal was above 100 µM in each case.

Turning to `CCOC(=O)c1c(O)cn2c1[nH]c1cccc3cccc2c31`, the TGI in the assay with 786-0 renal, in the assay with HCT-15 colon, in the assay with IGROV1 ovarian, in the assay on MCF7 breast, in the assay on MDA-N and with NCI-H226 lung was above 100 µM throughout. In addition, the TGI in the assay on SK-MEL-2 melanoma, in the assay with SNB-75 CNS, in the assay with SR leukemia, with T-47D breast, in the assay on UACC-62 melanoma and with UO-31 renal was above 100 µM in each case.

Turning to `O=C(Nc1ccccc1)N(CCN(Cc1ccccc1)C(=O)Nc1ccccc1)CCN(Nc1ccccc1)C(=O)Nc1ccccc1`, the TGI with 786-0 renal, with HCT-15 colon, in the assay with IGROV1 ovarian, with MCF7 breast, in the assay on MDA-N and in the assay on NCI-H226 lung was above 100 µM in each case. In addition, the TGI with SK-MEL-2 melanoma, in the assay on SNB-75 CNS, with SR leukemia, with T-47D breast, with UACC-62 melanoma and with UO-31 renal was above 100 µM in each case.

With `Cc1cc(N(CCC#N)CCC#N)ccc1/C(N=Nc1ccc([N+](=O)[O-])cc1)=N\NC(=O)c1cc(Cl)ccc1O`, the TGI is above 100 µM with 786-0 renal; above 100 µM with HCT-15 colon; above 100 µM with IGROV1 ovarian; above 100 µM in the assay with MCF7 breast; above 100 µM in the assay with MDA-N; 93 µM with NCI-H226 lung. Also, the TGI in the assay with SK-MEL-2 melanoma is above 100 µM; with SNB-75 CNS it was above 100 µM; with SR leukemia, above 100 µM; with T-47D breast it was 97.9 µM; with UACC-62 melanoma it was 67.6 µM; in the assay on UO-31 renal it was 56.8 µM.

In the case of `Nc1ncnc2c1ncn2[C@H]1C=C[C@@H](NO)C1`, the TGI in the assay with 786-0 renal, in the assay with HCT-15 colon, with IGROV1 ovarian, in the assay with MCF7 breast, with MDA-N and in the assay on NCI-H226 lung was above 100 µM in each case. The TGI in the assay on SK-MEL-2 melanoma, in the assay on SNB-75 CNS, with SR leukemia, with T-47D breast, in the assay on UACC-62 melanoma and in the assay with UO-31 renal was above 100 µM in each case.
